Common to all, as to assay type: in vivo
Assay [1] has as its system Tau protein. Kind of assay: Immunohistochemical fluorescent double staining of Tau phosphorylation in CA1 region of hippocampi of MSG mice. The conditions noted are these: 6-month-old MSG mice, 14 days SC twice a day; liraglutide 0.2 mg/kg, PrRP31 analog 5 mg/kg; epitopes Thr212 and Ser202/Thr205. Here is the method:
(§1) Groups of MSG mice (n=10 animals per group) were for 14 days SC administered with liraglutide at a dose 0.2 mg/kg, or palmitoylated analog of PrRP31 at a dose 5 mg/kg, or palmitoylated analog with PrRP31 with dichlorophenylalanin in position 31 at a dose 5 mg/kg dissolved in saline, twice a day, at 8 a.m. and 6:00 p.m. Control mice (n=10 animals per group), NMRI and MSG, were injected in the same manner with saline (the volume was always 0.2 ml/mouse).
(§2) Overnight (15 hours) fasted mice with ad libitum access to water were weighed, and their plasma glucose concentration was measured using Glucocard glucometer. After decapitation, the brains were dissected on ice, and cut between hemispheres. For immunohistochemical staining the half of the brain was fixed for 24 hours in 4% paraformaldehyde and dehydrated in 70% ethanol, afterward. For the western blot (WB) analysis, the hippocampus was dissected from the second half of the brain, and lysed in cold lysis buffer (62.5 mmol·l^−1 Tris-HCl, pH 6.8 with 1% sodium deoxycholate, 1% Triton X-100 Complete, 50 mmol·l^−1 NaF, 1 mmol·l^−1 Na3VO4), homogenized, sonicated 10 minutes and stored at −20° C. The blood plasma was prepared, and stored at −20° C.
To verify the results obtained from WB analysis the immunohistochemical staining was performed. Ten micrometer (10 μm) thick sections were prepared at INSERM, Lille, France. […]

Assay [2] deals with insulin signaling cascade (PDK-1, Akt, GSK-3β). Kind of assay: Western blot of insulin signaling cascade in hippocampi of 6-month-old MSG mice after 14-day treatment. The conditions noted are these: 14 days SC twice a day, liraglutide 0.2 mg/kg, vs saline. The procedure:
as §1, §2
(§3) In homogenized hippocampi the protein level was measured using BCA kit (Pierce, Thermo Fisher Scientific, Rockfor, Ill., USA), then the samples were diluted in sample buffer (62.5 mmol/l Tris-HCl pH 6.8, 10% glycerol, 2% SDS, 0.01% bromfenol blue, 5% merkaptoethanol, 50 mmol/l NaF and 1 mmol/l Na3VO4) to final concentration […]. WB method and analysis of the results were performed according Nagelová et al. (Nagelova et al., 2014).

Assay [3] relates to Tau protein. Kind of assay: Western blot of Tau phosphorylation in hippocampi of 6-month-old MSG mice after 14-day treatment. The conditions noted are these: 14 days SC twice a day, liraglutide 0.2 mg/kg, vs saline. Here is the method:
as §1, §2, §3
In general terms: In western blotting, separated proteins are transferred to a membrane and probed.

Regarding “(N-palm)SRTHRHSMEIRTPDINPAWYASRGIRPVGRF-NH2 [palmitoylated analog of PrRP31]”, the “Tau phosphorylation in hippocampal region CA1 (fluorescent signal)” value in assay [1] was “decreased”. The “phosphorylation of Akt (Thr308)” value in assay [2] (PrRP31 analog 5 mg/kg) is “more pronounced phosphorylation”. In assay [2] (PrRP31 analogs 5 mg/kg), the “activation of kinases implicated in insulin signaling cascade” value is “Enhanced activation” and the “phosphorylation of GSK-3β (Ser9)” value is on record as “more pronounced phosphorylation”. Moreover, the “not-phosphorylated Tau (antibody Tau1)” value in assay [3] (PrRP31 analog 5 mg/kg) is on record as “did not show any significant differences among groups”. Moreover, in assay [3] (PrRP31 analogs 5 mg/kg), the “phosphorylation of Tau protein at epitope Ser396” value is listed as “decreased phosphorylation”, the “phosphorylation of Tau protein at epitope Thr212” value is “decreased phosphorylation” and the “phosphorylation of Tau protein at epitope Thr231” value was “decreased phosphorylation”.
